# Laboratory results taken from patent US12528947B2, “Infrared-absorbing composition, film, optical filter, solid-state imaging element, image display device, and infrared sensor” (FUJIFILM Corporation, priority 2020, dated 2026).
# Legend:
# [1] = Maximal absorption wavelength of infrared-absorbing coloring agent in good solvent; assay type: physicochemical; conditions: coloring agent solution in dimethyl sulfoxide; for λmax: largest absorbance in 650 to 1500 nm; for Number of maximal absorption wavelengths: wavelength range 650 to 1500 nm
# Procedure: Each infrared-absorbing coloring agent was dissolved in a solvent (good solvent) descried in the following table to prepare a coloring agent solution having a concentration of infrared-absorbing coloring agent of […], and absorption spectrum of the coloring agent solution was measured. The number of maximal absorption wavelengths existing in a wavelength range of 650 to 1500 nm and the wavelength (max) indicating the value having the largest absorbance are shown in the following table.
# [2] = Evaluation of dissolved amount of infrared-absorbing coloring agent; assay type: physicochemical; conditions: 25° C., after stirring for 1 hour
# Procedure: The infrared-absorbing coloring agent shown in the tables below was added to a measurement solvent shown in the tables below, while the temperature was adjusted to 25° C. under atmospheric pressure. After stirring for 1 hour, the dissolved amount of each infrared-absorbing coloring agent in the measurement solvent at 25° C. was determined. The dissolved amount of the infrared-absorbing coloring agent was evaluated based on the following standard. A case of A was judged to be a good solvent, and a case of B was judged to be a poor solvent. The infrared-absorbing coloring agent exists as particles in the poor solvent. PGMEA described in the column of measurement solvent in the following tables is an abbreviation for propylene glycol monomethyl ether acetate. • A: dissolved amount of the infrared-absorbing coloring agent in 100 g of the measurement solvent at 25° C. was 0.1 g or more. • B: dissolved amount of the infrared-absorbing coloring agent in 100 g of the measurement solvent at 25° C. was less than 0.1 g.
Structure (SMILES),λmax [1] [nm],Number of maximal absorption wavelengths [1],Solubility ([2]; Cyclopentanone),Solubility ([2]; Dimethyl sulfoxide),Solubility ([2]; PGMEA),Solubility ([2]; Water)
Cc1ccccc1-c1c2/c(=C(\C#N)c3ccc4ccccc4n3)n(B(c3ccccc3)c3ccccc3)c(-c3ccc(OCCCCS(=O)(=O)O)cc3)c2/c(=C(\C#N)c2ccc3ccccc3n2)n1B(c1ccccc1)c1ccccc1 [Example A-1],819,2,B (dissolved amount of the infrared-absorbing coloring agent in 100 g of the measurement solvent at 25 °C was less than 0.1 g),A (dissolved amount of the infrared-absorbing coloring agent in 100 g of the measurement solvent at 25 °C was 0.1 g or more),B (dissolved amount of the infrared-absorbing coloring agent in 100 g of the measurement solvent at 25 °C was less than 0.1 g),B (dissolved amount of the infrared-absorbing coloring agent in 100 g of the measurement solvent at 25 °C was less than 0.1 g)
Cc1ccccc1-c1c2/c(=C(\C#N)c3nc4ccccc4s3)n(B(c3ccccc3)c3ccccc3)c(-c3ccc(OCCCN(C)C)cc3)c2/c(=C(\C#N)c2nc3ccccc3s2)n1B(c1ccccc1)c1ccccc1 [Example A-3],780,2,B (dissolved amount of the infrared-absorbing coloring agent in 100 g of the measurement solvent at 25 °C was less than 0.1 g),A (dissolved amount of the infrared-absorbing coloring agent in 100 g of the measurement solvent at 25 °C was 0.1 g or more),B (dissolved amount of the infrared-absorbing coloring agent in 100 g of the measurement solvent at 25 °C was less than 0.1 g),B (dissolved amount of the infrared-absorbing coloring agent in 100 g of the measurement solvent at 25 °C was less than 0.1 g)
Cc1ccccc1-c1c2/c(=C(\C#N)c3nc4ccccc4s3)n(B(c3ccccc3)c3ccccc3)c(-c3ccc(OCCCCS(=O)(=O)O)cc3)c2/c(=C(\C#N)c2nc3ccccc3s2)n1B(c1ccccc1)c1ccccc1 [Example A-4],779,2,B (dissolved amount of the infrared-absorbing coloring agent in 100 g of the measurement solvent at 25 °C was less than 0.1 g),A (dissolved amount of the infrared-absorbing coloring agent in 100 g of the measurement solvent at 25 °C was 0.1 g or more),B (dissolved amount of the infrared-absorbing coloring agent in 100 g of the measurement solvent at 25 °C was less than 0.1 g),B (dissolved amount of the infrared-absorbing coloring agent in 100 g of the measurement solvent at 25 °C was less than 0.1 g)
"Cc1ccccc1-c1c2/c(=C(\C#N)c3ccc4ccccc4n3)n(B(c3ccccc3)c3ccccc3)c(-c3ccc(OCCO)cc3)c2/c(=C(\C#N)c2ccc3ccccc3n2)n1B(c1ccccc1)c1ccccc1 [Comparative coloring agent 1, reference compound]",819,2,B (dissolved amount of the infrared-absorbing coloring agent in 100 g of the measurement solvent at 25 °C was less than 0.1 g),A (dissolved amount of the infrared-absorbing coloring agent in 100 g of the measurement solvent at 25 °C was 0.1 g or more),B (dissolved amount of the infrared-absorbing coloring agent in 100 g of the measurement solvent at 25 °C was less than 0.1 g),B (dissolved amount of the infrared-absorbing coloring agent in 100 g of the measurement solvent at 25 °C was less than 0.1 g)

# Further lines, with some results ahead:
λmax [1] [nm],Number of maximal absorption wavelengths [1],Structure (SMILES),Solubility ([2]; Cyclopentanone),Solubility ([2]; Dimethyl sulfoxide),Solubility ([2]; PGMEA),Solubility ([2]; Water)
747,2,Cc1ccccc1-c1c2/c(=C(\C#N)c3nc4ccc(Br)cc4o3)n(B(c3ccccc3)c3ccccc3)c(-c3ccc(OCCCS(=O)(=O)O)cc3)c2/c(=C(\C#N)c2nc3ccc(Br)cc3o2)n1B(c1ccccc1)c1ccccc1 [Example A-7],B (dissolved amount of the infrared-absorbing coloring agent in 100 g of the measurement solvent at 25 °C was less than 0.1 g),A (dissolved amount of the infrared-absorbing coloring agent in 100 g of the measurement solvent at 25 °C was 0.1 g or more),B (dissolved amount of the infrared-absorbing coloring agent in 100 g of the measurement solvent at 25 °C was less than 0.1 g),B (dissolved amount of the infrared-absorbing coloring agent in 100 g of the measurement solvent at 25 °C was less than 0.1 g)
746,2,Cc1ccccc1-c1c2/c(=C(\C#N)c3nc4ccc(Cl)cc4o3)n(B(c3ccccc3)c3ccccc3)c(-c3ccc(OCCCS(=O)(=O)O)cc3)c2/c(=C(\C#N)c2nc3ccc(Cl)cc3o2)n1B(c1ccccc1)c1ccccc1 [Example A-5],B (dissolved amount of the infrared-absorbing coloring agent in 100 g of the measurement solvent at 25 °C was less than 0.1 g),A (dissolved amount of the infrared-absorbing coloring agent in 100 g of the measurement solvent at 25 °C was 0.1 g or more),B (dissolved amount of the infrared-absorbing coloring agent in 100 g of the measurement solvent at 25 °C was less than 0.1 g),B (dissolved amount of the infrared-absorbing coloring agent in 100 g of the measurement solvent at 25 °C was less than 0.1 g)
801,2,COc1ccc2nc(/C(C#N)=c3/c4c(-c5ccccc5C)n(B(c5ccccc5)c5ccccc5)/c(=C(/C#N)c5nc6ccc(OC)cc6s5)c4c(-c4ccc(OCCCCS(=O)(=O)O)cc4)n3B(c3ccccc3)c3ccccc3)sc2c1 [Example A-6],B (dissolved amount of the infrared-absorbing coloring agent in 100 g of the measurement solvent at 25 °C was less than 0.1 g),A (dissolved amount of the infrared-absorbing coloring agent in 100 g of the measurement solvent at 25 °C was 0.1 g or more),B (dissolved amount of the infrared-absorbing coloring agent in 100 g of the measurement solvent at 25 °C was less than 0.1 g),B (dissolved amount of the infrared-absorbing coloring agent in 100 g of the measurement solvent at 25 °C was less than 0.1 g)
